Experimental data as given in BigSolDB 2.1.

CC(C)C[C@H](CN)CC(=O)O
solubility (mole fraction)
Conditions	in acetonitrile	in ethanol	in ethyl acetate	in isobutanol	in isopropanol	in methanol	in n-butanol	in n-propanol
278.15 K	0.000572	0.00115	0.00164	0.00126	9.1e-05	0.00112	0.00093	0.00109
283.15 K	0.000624	0.00149	0.00195	0.00136	0.000125	0.00153	0.00152	0.00144
288.15 K	0.000695	0.00188	0.00237	0.00146	0.000163	0.00198	0.00213	0.00185
293.15 K	0.00076	0.00235	0.00271	0.00159	0.000214	0.00242	0.00282	0.00241
298.15 K	0.000821	0.00272	0.00331	0.00173	0.000253	0.00273	0.00354	0.00277
303.15 K	0.000885	0.00321	0.00374	0.00184	0.000281	0.0033	0.00416	0.0032
308.15 K	0.000931	0.00369	0.00429	0.00194	0.000314	0.00399	0.00487	0.00368
313.15 K	0.000988	0.00424	0.00488	0.002	0.000362	0.00465	0.00551	0.00412
318.15 K	0.00106	0.00501	0.00547	0.00209	0.000419	0.00542	0.00619	0.00466
323.15 K	0.00113	0.00575	0.00589	0.00219	0.000461	0.00602	0.00677	0.00501
328.15 K	0.00118	0.00634	0.00631	0.00226	0.000513	0.00671	0.00731	0.00542
333.15 K	0.00123	0.00711	0.00674	0.00234	0.000585	0.00753	0.00793	0.00603
